Patent US20200405687A1, “METHODS FOR THE TREATMENT OF INFECTION” (Corbus Pharmaceuticals, Inc., priority 2016, published 2020)
“Also recorded” adds a separate entry of the source.

Test system: UV-killed Escherichia coli
Test: Skin challenge (blister) model, intradermal UV-killed E. coli in healthy volunteers (Example 3)
Format: in vivo, humans
Settings: for infiltration of neutrophils at the site of inflammation (blister exudate): 4 h and 10 h
Protocol: The ability of administration of a pharmaceutical composition including ajulemic acid to treat infection was assayed in a skin challenge model. A self-resolving acute inflammatory response was triggered by the intradermal injection of UV-killed Escherichia coli into the forearm of healthy volunteers. […] This study was performed to determine whether ajulemic acid promotes the resolution of infection at the site of inflammation, thereby treating that infection.
Cells and exudates were harvested at several time points following injection of UV-killed E. coli by applying negative pressure over the inflamed site.
The study included four experimental groups (n=10 in each group): • 1) Placebo, twice daily for four days • 2) Ajulemic acid, 5 mg, twice daily for four days • 3) Ajulemic acid, 20 mg, twice daily for four days • 4) Prednisone, 15 mg daily for four days
The volunteer (healthy males, 18-50 years) were randomly allocated to one of the above three groups and orally administered the test drug for four consecutive days. On the morning of the fourth day (after intake of the first dose), experimental acute inflammation was elicited by infection with UV-killed E. coli. The drug and the placebo were provided as capsules.
UV killed E. coli (Strain: NCTC 10418, Source: Public Health England, UK) were prepared as follows. E. coli described were grown overnight in Luria Broth (Sigma) at 37° C. The next morning, the bacteria were washed twice in sterile PBS (2500 g, 20 min, 4° C.) and resuspended in a sterile petri dish.
Bacteria were then killed by exposure to an ultraviolet light (UV) source (302 nm, ChemiDoc, trans-UV mode; Bio-Rad laboratories) for 60 min and then washed again in sterile saline. Bacterial counts were determined by optical density (OD600=0.365 equates to […] E. coli/ml). UVKEc were resuspended in a volume of sterile saline to obtain the count of 1.5×10^8/ml, aliquoted into sterile eppendorf tubes and then frozen at −80° C. until used for injections.
After disinfecting and shaving the skin, 1.5×10^7 UVKEc in 100 μl saline were injected intradermally into a marked site on the volar aspect of each forearm. To characterize the treatment of infection using ajulemic acid, each forearm was allotted to one of the predefined time-points namely 4, 8, 14, 24, 48 or 72 hours (h). Thus the effects of intradermal injection of UVKEc were allowed to progress for the duration of the time-point after which a suction blister was raised over the marked injection site, and then aspirated immediately. In summary, volunteer had two injection sites, one on each forearm, and contributed to two time points. On a separate group of volunteers, blister was raised on the naïve skin and treated as the baseline time point. Study time-points were discussed with volunteers before consenting.
Laser Doppler Imager (moor LDI-HIR, Moor Instruments Ltd, Axminster, Devon, UK) was used to quantify the blood flow at the site of infection. At predefined time points after injection of UVKEc, the forearm was placed under the scanner at a fixed distance to scan a fixed area. The scanner emits a laser beam, a portion of which is scattered by red blood cells present at the inflamed area. The scattering causes a change in frequency of the reflected light which is then detected by a photo detector. The velocity and concentration of red blood cells at the site directly affect the Doppler frequency shifts and account for the signal strength measured in arbitrary perfusion units. […] The total blood flow (measured in perfusion units) was calculated as product of number of valid pixels above background signal (Cut-off=300 perfusion units) and the mean blood flow signal over the valid pixels 11, 12.
To obtain the exudate from the site of infection, a 10 mm diameter suction blister was induced directly over the site of injection. […]

Question: Which results are given for CCCCCCC(C)(C)c1cc(O)c2c(c1)OC(C)(C)[C@@H]1CC=C(C(=O)O)C[C@@H]21 [ajulemic acid, (6aR,10aR)-1-hydroxy-6,6-dimethyl-3-(2-methyl-2-octanyl)-6a,7,10,10a-tetrahydro-6H-benzo[c]chromene-9-carboxylic acid]?
Answer: pro-resolving macrophages during the resolution arm of innate immune response (5 mg or 20 mg): increases pro-resolving macrophages; IL-8 (pro-inflammatory cytokine) levels in inflammatory exudate (5 mg or 20 mg BID, 4 hr and 10 hr, multiplex ELISA, listed as Ajulemic acid): reduce; time course of neutrophil infiltration at the site of inflammation (20 mg ajulemic acid group, relative to placebo): neutrophil infiltration is decreased relative to placebo; rise in C-reactive protein (CRP) levels in serum (after UVKEc triggered acute inflammation, multiple time points): does not appear to inhibit the rise in C-reactive protein levels; infiltration of neutrophils at the site of inflammation (blister exudate) (ajulemic acid 5 mg or 20 mg BID, prednisone 15 mg daily, relative to placebo): decrease in the infiltration of neutrophils; infiltration of neutrophils at the site of inflammation (blister exudate) (ajulemic acid 5 mg or 20 mg BID, prednisone 15 mg daily, relative to placebo, listed as Ajulemic acid): reduce; levels of endotoxin at the site of injection (ajulemic acid 5 mg or 20 mg BID, prednisone 15 mg daily, 4 hr and 10 hr, limulus amoebocyte lysate test): decreased levels of endotoxin; also recorded: reduces levels of endotoxin; local vascular blood flow at injection site (laser Doppler) (at least 20 mg AJA BID, four days): increase in local blood flow; vasodilation (summary of blister model results): reduce vasodilation
